Test results published in ChEMBL document CHEMBL1129291, “Tyrosine kinase inhibitors. 8. An unusually steep structure-activity relationship for analogues of 4-(3-bromoanilino)-6,7-dimethoxyquinazoline (PD 153035), a potent inhibitor of the epidermal growth factor receptor” (J Med Chem, 1996).

Molecular target: Epidermal growth factor receptor (Homo sapiens, UniProt P00533)
Assay: Concentration required to inhibit the phosphorylation of a 14-residue fragment of phospholipase C gamma 1 by Epidermal growth factor receptor from A431 cell vesicles

Chain of Epidermal growth factor receptor (P00533 whole entry, the tested form may be a part): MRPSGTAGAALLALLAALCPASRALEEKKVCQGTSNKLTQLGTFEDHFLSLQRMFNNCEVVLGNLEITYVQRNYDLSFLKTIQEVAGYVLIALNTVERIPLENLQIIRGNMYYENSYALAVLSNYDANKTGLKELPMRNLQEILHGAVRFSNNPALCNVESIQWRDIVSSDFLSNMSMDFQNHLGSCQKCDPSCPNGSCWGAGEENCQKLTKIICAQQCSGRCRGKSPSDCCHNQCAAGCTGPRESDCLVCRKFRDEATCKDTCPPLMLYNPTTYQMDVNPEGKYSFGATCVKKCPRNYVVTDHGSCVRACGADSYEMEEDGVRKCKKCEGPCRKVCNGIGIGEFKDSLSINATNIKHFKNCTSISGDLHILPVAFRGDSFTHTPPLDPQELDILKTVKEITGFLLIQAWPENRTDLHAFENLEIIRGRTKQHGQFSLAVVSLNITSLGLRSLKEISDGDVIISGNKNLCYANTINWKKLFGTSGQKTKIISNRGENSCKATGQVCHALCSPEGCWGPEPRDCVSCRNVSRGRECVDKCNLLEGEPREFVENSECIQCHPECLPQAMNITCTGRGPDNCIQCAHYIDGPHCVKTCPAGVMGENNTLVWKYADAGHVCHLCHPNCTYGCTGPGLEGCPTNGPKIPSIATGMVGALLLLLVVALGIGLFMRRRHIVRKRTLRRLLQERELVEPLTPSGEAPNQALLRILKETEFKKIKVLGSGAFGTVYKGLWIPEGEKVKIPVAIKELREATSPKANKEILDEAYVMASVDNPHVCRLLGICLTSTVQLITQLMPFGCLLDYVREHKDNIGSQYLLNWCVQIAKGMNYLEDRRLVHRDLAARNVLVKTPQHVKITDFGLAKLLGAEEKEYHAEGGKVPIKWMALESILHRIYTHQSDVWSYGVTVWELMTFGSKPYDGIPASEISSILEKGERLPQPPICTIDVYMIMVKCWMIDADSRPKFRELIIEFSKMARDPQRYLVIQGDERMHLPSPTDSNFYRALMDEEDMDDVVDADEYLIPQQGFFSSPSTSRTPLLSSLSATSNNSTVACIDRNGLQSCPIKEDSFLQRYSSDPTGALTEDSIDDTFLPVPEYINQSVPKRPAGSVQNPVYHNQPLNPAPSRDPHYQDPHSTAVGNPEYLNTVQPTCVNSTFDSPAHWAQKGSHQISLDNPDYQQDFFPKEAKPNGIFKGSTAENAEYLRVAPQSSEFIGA

Row | IC50 | Compound
1 | 0.24 nM | COc1cc2ncnc(Nc3cccc(C(F)(F)F)c3)c2cc1OC
2 | 0.96 nM | COc1cc2ncnc(Nc3ccc(Br)cc3)c2cc1OC
3 | 5000 nM | O=[N+]([O-])c1ccc2ncnc(Nc3ccccc3)c2c1
4 | 0.006 nM | CCOc1cc2ncnc(Nc3cccc(Br)c3)c2cc1OCC
5 | 4 nM | CNc1ccc2ncnc(Nc3cccc(Br)c3)c2c1
6 | 11 nM | CN(C)c1ccc2c(Nc3cccc(Br)c3)ncnc2c1
7 | 12000 nM | O=[N+]([O-])c1ccc2c(Nc3ccccc3)ncnc2c1
8 | 0.35 nM | Nc1ccc2c(Nc3cccc(I)c3)ncnc2c1
9 | 113 nM | COc1cc2ncnc(Nc3cc(Br)cc(Br)c3)c2cc1OC
10 | 56 nM | Fc1cccc(Nc2ncnc3ccccc23)c1
11 | 15 nM | Brc1cccc(Nc2ncnc3cc4c(cc23)OCO4)c1
12 | 53 nM | Nc1cc2ncnc(Nc3cccc(Br)c3)c2cc1[N+](=O)[O-]
13 | 810 nM | O=[N+]([O-])c1ccc2c(Nc3cccc(Cl)c3)ncnc2c1
14 | 2 nM | Nc1ccc2c(Nc3cccc(F)c3)ncnc2c1
15 | 0.89 nM | COc1cc2ncnc(Nc3cccc(I)c3)c2cc1OC

The remaining lines, values behind:

Row | Compound | IC50
16 | COc1cc2nc(C)nc(Nc3cccc(Br)c3)c2cc1OC | > 10000 nM
17 | COc1cc2ncnc(Nc3cccc(Br)c3)c2c(OC)c1OC | 0.67 nM
18 | CCCCOc1cc2ncnc(Nc3cccc(Br)c3)c2cc1OCCCC | 105 nM
19 | O=[N+]([O-])c1ccc2ncnc(Nc3cccc(C(F)(F)F)c3)c2c1 | > 10000 nM
20 | COc1cc2ncnc(Nc3ccc(Br)c(Br)c3)c2cc1OC | 0.072 nM
21 | Nc1ccc2ncnc(Nc3cccc(C(F)(F)F)c3)c2c1 | 574 nM
22 | COc1ccc2ncnc(Nc3ccccc3)c2c1 | 55 nM
23 | Nc1ccc2c(Nc3cccc(Cl)c3)ncnc2c1 | 0.25 nM
24 | CCCOc1cc2ncnc(Nc3cccc(Br)c3)c2cc1OCCC | 0.17 nM
25 | COc1cc2c(Nc3cccc(Br)c3)ncnc2c(OC)c1OC | > 10000 nM
26 | CN(C)c1ccc2ncnc(Nc3cccc(Br)c3)c2c1 | 84 nM
27 | COc1ccc2ncnc(Nc3cccc(Br)c3)c2c1 | 30 nM
28 | Nc1cc2c(Nc3cccc(Br)c3)ncnc2cc1Cl | 6.5 nM
29 | COc1cc2ncnc(Nc3cccc(Br)c3)c2cc1[N+](=O)[O-] | 15 nM
30 | O=[N+]([O-])c1cc2c(Nc3cccc(Br)c3)ncnc2cc1Cl | 25 nM
31 | Nc1ccc2ncnc(Nc3ccccc3)c2c1 | 770 nM

Row | Compound | IC50
32 | COc1cc2ncnc(Nc3ccccc3Br)c2cc1OC | 128 nM
33 | COc1ccc2c(Nc3ccccc3)ncnc2c1 | 120 nM
34 | CNc1cc2ncnc(Nc3cccc(Br)c3)c2cc1[N+](=O)[O-] | 68 nM
35 | CNc1cc2ncnc(Nc3cccc(Br)c3)c2cc1N | 0.69 nM
36 | O=[N+]([O-])c1ccc2c(Nc3cccc(I)c3)ncnc2c1 | 540 nM
37 | COc1cc2nc(N)nc(Nc3cccc(Br)c3)c2cc1OC | 463 nM
38 | Oc1ccc2c(Nc3cccc(Br)c3)ncnc2c1 | 4.7 nM
39 | COc1ccc2c(Nc3cccc(Br)c3)ncnc2c1OC | > 10000 nM
40 | CC(=O)Nc1ccc2c(Nc3cccc(Br)c3)ncnc2c1 | 40 nM
41 | CN(C)c1cc2ncnc(Nc3cccc(Br)c3)c2cc1[N+](=O)[O-] | 2000 nM
42 | CC(=O)Nc1cc2ncnc(Nc3cccc(Br)c3)c2cc1[N+](=O)[O-] | 28 nM
43 | COc1cc2ncnc(Nc3ccccc3)c2cc1OC | 29 nM
44 | O=[N+]([O-])c1ccc2c(Nc3cccc(C(F)(F)F)c3)ncnc2c1 | > 10000 nM
45 | CN(C)c1cc2ncnc(Nc3cccc(Br)c3)c2cc1N | 159 nM
46 | COc1ccc2ncnc(Nc3cccc(Br)c3)c2c1OC | 1370 nM
47 | COc1cc2ncnc(Nc3cccc(Br)c3)c2cc1N | 3.8 nM
